From patent US20150259344A1, “IMIDAZOLE DERIVATIVE” (DAINIPPON SUMITOMO PHARMA CO., LTD., priority 2012, published 2015)

Columns and labels:
Slc:Wistar rats = experiment: Y-shaped maze test in rats (Y-maze test), scopolamine-induced cognitive impairment; format: in vivo; settings: 3 mg/kg (oral), treated prior to 0.6 mg/kg scopolamine HBr s.c.
Description: Evaluation on Improvement Against Cognitive Impairment with Rats in Y-Shaped Maze Test (Hereinafter, Referred to as “Y-Maze Test”)
In Y-maze test, 0.6 mg/kg scopolamine HBr (cat#S0929, Sigma Aldrich, Japan) can be subcutaneously administered to Slc:Wistar rats (280 to 300 g, male, Japan SLC) to cause cognitive impairment and decrease the percentage of spontaneous alternation behavior. According to the test mechanism, the present compounds were treated prior to the administration of scopolamine, and the improvement effect on cognitive impairment is evaluated.

human α7 nAChR = molecular target: T1, human α7 nAChR (Homo sapiens, UniProt P36544); experiment: Evaluation of PAM activity with human α7 nACh receptor stably expressing cells (aequorin luminescence, FDSS7000); format: cell-based; settings: 10 μM test compound; ACh at EC20; ratio of RLU (Max-Min) to control wells; read-out: α7PAM (%) @10 μM
T1 construct: expressed in transfected cells
How it was run: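 Human α7 nAChR stable cells loaded with 4 μM Viviren (final) for 4 h at room temperature in the dark. Compounds in Hanks/20 mM HEPES/0.2% BSA were added and luminescence recorded on FDSS7000. PAM activity = RLU (Max-Min) ratio of test wells to control wells.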

Slc:ddY mice = experiment: Novel object recognition test in mice (mORT), evaluation of cognitive function; format: in vivo; settings: 3 mg/kg (oral), administered prior to the 1st trial, 2nd trial 24 hours after
Description: Evaluation of Cognitive Function with Mice in Novel Object Recognition Test (Hereinafter. Referred to as “mORT”)
Slc:ddY mice (25 to 30 g, male, Japan SLC) can be used in the novel object recognition test wherein the interval between the 1st trial (training) and the 2nd trial (test) correlates with the memory loss for the objects used in the 1st trial, and a significant memory-loss is observed when the 2nd trial is performed 24 hours after the 1st trial. According to the test mechanism, the present compounds were administered prior to the 1st trial, and the enhancement effect on memory in the 2nd trial was evaluated.

T1 sequence (P36544 23-502): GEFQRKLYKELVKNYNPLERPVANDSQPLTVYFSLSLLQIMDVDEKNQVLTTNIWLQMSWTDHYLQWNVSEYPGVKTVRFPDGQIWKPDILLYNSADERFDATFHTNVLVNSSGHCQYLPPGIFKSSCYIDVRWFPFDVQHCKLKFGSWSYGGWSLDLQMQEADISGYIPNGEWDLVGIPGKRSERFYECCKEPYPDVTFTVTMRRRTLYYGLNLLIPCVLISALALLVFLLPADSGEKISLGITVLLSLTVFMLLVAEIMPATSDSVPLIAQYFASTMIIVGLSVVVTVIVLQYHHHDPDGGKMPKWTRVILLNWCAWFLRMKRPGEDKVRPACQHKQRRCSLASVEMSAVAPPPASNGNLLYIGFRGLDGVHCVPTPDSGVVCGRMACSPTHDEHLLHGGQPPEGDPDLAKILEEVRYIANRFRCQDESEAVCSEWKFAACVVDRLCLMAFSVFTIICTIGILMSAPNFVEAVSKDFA

Compound	activity at 10 µM (human α7 nAChR) [%]	improvement effect on cognitive impairment (Y-maze, spontaneous alternation behavior) (Slc:Wistar rats)	enhancement effect on memory in the 2nd trial (mORT) (Slc:ddY mice)
O=C(NC1CCCCC1)N1CCC(n2cnc(-c3cccc(F)c3)c2)CC1 [Example 1, N-Cyclohexyl-4-[4-(3-fluorophenyl)-1H-imidazol-1-yl]piperidine-1-carboxamide]	836	significant improvement effect on memory disorder	significant memory enhancing effect
O=C(NC1CCOCC1)[C@H]1CC[C@@H](n2cnc(-c3ccc(F)c(F)c3)c2Cl)CC1 [Example 370, cis-4-[5-chloro-4-(3,4-difluorophenyl)-1H-imidazol-1-yl]-(tetrahydro-2H-pyran-4-yl)cyclohexanecarboxamide]			significant memory enhancing effect
O=C(C1CCC(F)(F)CC1)N1[C@@H]2CC[C@H]1C[C@H](n1cnc(-c3ccc(F)cc3)c1Cl)C2 [Example 452, {(3-exo)-3-[5-chloro-4-(4-fluorophenyl)-1H-imidazol-1-yl]-8-azabicyclo[3.2.1]oct-8-yl}(4,4-difluorocyclohexyl)methanone]			significant memory enhancing effect

Now from value to compound, other results behind:

activity at 10 µM (human α7 nAChR) [%]	Compound	improvement effect on cognitive impairment (Y-maze, spontaneous alternation behavior) (Slc:Wistar rats)	enhancement effect on memory in the 2nd trial (mORT) (Slc:ddY mice)
791	CC(C)(F)C(=O)N[C@H]1CC[C@@H](n2cnc(-c3ccc(F)cc3)c2Cl)CC1 [Example 183, N-{cis-4-[5-chloro-4-(4-fluorophenyl)-1H-imidazol-1-yl]cyclohexyl}-2-fluoro-2-methylpropanamide]	significant improvement effect on memory disorder	significant memory enhancing effect
787	CC(C)(F)C(=O)N[C@H]1CC[C@@H](n2cnc(-c3ccc(Cl)cc3)c2)CC1 [Example 280, N-{cis-4-[4-(4-chlorophenyl)-1H-imidazol-1-yl]cyclohexyl}-2-fluoro-2-methylpropanamide]		significant memory enhancing effect
